Source: patent US20170008888A1 (KYORIN PHARMACEUTICAL CO., LTD., priority 2014, published 2017)

Assays:
Type in all cases: binding
AurB or AurC = experiment: Probe-based (AX9989) kinase profiling in Jurkat lysate: AurB or AurC
In short: (§1)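 Compounds were pre-incubated for 15 min at room temperature with gel-filtered Jurkat cell lysate supplemented with 20 mM MnCl2, after which the acyl phosphate ATP probe AX9989 was added at 5 μM final. Labeled active-site peptides were enriched after tryptic digestion and measured by LC/MS, with percent inhibition taken relative to samples without compound.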

JAK1 = target: T1, JAK1 (Homo sapiens, UniProt P23458); experiment: Probe-based (AX9989) kinase profiling in Jurkat lysate: JAK1; details: read-out: Kinase inhibition % at indicated screening concentration: JAK1; for inhibition at 0.1 µM: screening concentration 0.1 μM; for inhibition at 1 µM: screening concentration 1.0 μM
T1 construct: screened for activity against several kinases in Jurkat cells; endogenous in cells; host or cells: Jurkat cell lysate
T1 sequence (P23458 whole entry): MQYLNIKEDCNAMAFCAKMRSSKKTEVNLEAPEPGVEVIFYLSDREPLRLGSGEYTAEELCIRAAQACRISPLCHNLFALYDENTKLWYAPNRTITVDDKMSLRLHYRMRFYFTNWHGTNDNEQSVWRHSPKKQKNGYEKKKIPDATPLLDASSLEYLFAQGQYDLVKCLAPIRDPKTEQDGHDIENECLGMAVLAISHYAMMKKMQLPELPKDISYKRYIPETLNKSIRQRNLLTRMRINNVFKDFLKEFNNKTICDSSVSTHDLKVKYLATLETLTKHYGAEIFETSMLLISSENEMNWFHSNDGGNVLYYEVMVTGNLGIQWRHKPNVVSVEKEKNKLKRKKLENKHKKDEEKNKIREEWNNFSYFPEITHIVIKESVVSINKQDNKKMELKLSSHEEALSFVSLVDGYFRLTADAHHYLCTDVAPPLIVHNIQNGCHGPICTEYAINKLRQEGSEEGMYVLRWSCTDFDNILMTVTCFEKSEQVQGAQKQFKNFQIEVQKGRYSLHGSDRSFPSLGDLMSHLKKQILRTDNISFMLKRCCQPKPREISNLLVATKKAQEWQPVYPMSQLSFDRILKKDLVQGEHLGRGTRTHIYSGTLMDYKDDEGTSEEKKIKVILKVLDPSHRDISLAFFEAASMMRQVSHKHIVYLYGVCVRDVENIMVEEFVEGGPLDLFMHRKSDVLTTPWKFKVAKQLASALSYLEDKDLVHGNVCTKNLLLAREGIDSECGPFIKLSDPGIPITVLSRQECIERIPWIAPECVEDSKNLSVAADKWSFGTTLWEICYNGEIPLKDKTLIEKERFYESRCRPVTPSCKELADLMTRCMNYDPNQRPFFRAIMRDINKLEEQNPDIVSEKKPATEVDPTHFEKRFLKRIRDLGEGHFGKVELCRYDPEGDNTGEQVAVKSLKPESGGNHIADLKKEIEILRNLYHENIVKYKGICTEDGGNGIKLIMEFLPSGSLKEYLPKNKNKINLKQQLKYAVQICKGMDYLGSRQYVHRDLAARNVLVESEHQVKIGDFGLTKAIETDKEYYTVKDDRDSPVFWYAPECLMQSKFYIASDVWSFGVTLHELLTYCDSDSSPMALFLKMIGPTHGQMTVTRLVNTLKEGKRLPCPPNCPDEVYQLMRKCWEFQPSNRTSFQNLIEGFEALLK
In short: as §1

TAO2 = target: T2, TAO2 (Homo sapiens, UniProt Q9UL54); experiment: Probe-based (AX9989) kinase profiling in Jurkat lysate: TAO2; details: read-out: Kinase inhibition % at indicated screening concentration: TAO2; for inhibition at 0.1 µM: screening concentration 0.1 μM; for inhibition at 1 µM: screening concentration 1.0 μM
T2 construct: screened for activity against several kinases in Jurkat cells; endogenous in cells; host or cells: Jurkat cell lysate
T2 sequence (Q9UL54 1-1235): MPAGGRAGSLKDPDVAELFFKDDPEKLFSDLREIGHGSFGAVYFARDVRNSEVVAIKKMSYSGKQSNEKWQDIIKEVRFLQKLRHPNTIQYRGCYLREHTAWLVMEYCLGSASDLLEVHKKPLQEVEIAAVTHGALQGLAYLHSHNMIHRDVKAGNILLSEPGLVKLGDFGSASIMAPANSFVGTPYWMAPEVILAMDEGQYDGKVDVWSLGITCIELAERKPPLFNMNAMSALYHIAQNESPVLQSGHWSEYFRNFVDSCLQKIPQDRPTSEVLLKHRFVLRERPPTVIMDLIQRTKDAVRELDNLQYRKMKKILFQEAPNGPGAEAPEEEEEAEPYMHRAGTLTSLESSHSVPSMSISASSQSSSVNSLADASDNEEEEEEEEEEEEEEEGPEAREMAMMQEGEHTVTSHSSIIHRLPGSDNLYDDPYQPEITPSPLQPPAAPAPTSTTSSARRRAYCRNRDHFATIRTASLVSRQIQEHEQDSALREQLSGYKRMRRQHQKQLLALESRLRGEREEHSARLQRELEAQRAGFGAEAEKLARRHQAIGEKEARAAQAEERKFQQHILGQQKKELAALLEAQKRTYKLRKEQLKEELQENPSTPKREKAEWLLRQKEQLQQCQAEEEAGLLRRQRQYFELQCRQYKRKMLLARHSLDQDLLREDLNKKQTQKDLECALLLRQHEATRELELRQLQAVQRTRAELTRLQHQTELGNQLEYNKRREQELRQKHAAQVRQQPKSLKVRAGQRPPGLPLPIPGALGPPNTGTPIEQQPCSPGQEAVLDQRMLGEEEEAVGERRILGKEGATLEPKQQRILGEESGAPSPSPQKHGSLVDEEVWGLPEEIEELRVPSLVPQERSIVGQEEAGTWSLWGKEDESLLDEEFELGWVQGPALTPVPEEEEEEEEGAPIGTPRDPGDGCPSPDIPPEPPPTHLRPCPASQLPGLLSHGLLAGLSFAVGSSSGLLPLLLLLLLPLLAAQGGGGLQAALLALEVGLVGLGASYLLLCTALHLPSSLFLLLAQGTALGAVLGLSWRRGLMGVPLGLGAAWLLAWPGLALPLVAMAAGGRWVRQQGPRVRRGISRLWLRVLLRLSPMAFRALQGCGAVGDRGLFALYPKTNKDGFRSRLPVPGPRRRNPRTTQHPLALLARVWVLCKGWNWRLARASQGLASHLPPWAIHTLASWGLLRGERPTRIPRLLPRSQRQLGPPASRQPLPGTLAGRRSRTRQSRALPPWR
In short: as §1

ACK = target: T3, ACK (Homo sapiens, UniProt Q07912); experiment: Probe-based (AX9989) kinase profiling in Jurkat lysate: ACK; details: read-out: Kinase inhibition % at indicated screening concentration: ACK; for inhibition at 0.1 µM: screening concentration 0.1 μM; for inhibition at 1 µM: screening concentration 1.0 μM
T3 construct: screened for activity against several kinases in Jurkat cells; endogenous in cells; host or cells: Jurkat cell lysate
T3 sequence (Q07912 whole entry): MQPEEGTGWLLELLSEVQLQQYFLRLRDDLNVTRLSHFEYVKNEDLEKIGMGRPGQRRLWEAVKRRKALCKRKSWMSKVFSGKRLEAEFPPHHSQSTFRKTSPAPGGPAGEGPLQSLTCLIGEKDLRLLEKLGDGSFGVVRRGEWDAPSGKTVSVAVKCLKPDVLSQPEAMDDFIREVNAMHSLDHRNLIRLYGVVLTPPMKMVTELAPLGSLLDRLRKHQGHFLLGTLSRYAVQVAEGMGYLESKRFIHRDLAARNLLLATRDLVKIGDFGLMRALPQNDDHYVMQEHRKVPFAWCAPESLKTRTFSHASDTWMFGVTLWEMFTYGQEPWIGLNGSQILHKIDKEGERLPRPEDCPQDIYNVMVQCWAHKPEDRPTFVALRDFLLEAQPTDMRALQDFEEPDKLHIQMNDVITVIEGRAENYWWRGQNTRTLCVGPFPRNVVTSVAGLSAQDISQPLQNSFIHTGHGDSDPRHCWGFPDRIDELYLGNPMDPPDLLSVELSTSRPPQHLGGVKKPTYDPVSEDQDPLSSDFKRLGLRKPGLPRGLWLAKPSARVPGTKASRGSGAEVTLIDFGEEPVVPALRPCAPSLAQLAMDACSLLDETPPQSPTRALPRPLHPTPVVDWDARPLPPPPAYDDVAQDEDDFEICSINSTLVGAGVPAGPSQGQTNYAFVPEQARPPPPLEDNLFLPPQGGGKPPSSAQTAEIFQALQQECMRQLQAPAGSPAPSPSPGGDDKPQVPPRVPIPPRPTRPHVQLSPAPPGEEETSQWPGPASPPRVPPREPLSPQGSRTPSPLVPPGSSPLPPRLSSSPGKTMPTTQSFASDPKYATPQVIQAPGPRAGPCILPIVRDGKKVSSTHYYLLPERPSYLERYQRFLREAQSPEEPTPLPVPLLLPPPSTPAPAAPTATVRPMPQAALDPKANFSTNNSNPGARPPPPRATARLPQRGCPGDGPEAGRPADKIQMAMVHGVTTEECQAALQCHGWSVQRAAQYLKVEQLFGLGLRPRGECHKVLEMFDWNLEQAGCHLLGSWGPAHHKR
In short: as §1

Compound	Kinase inhibition % at indicated screening concentration: AurB or AurC (AurB or AurC; screening concentration 0.1 μM)	inhibition at 0.1 µM (JAK1) [%]	inhibition at 0.1 µM (TAO2) [%]	inhibition at 0.1 µM (ACK) [%]	Kinase inhibition % at indicated screening concentration: AurB or AurC (AurB or AurC; screening concentration 1.0 μM)	inhibition at 1 µM (JAK1) [%]	inhibition at 1 µM (TAO2) [%]	inhibition at 1 µM (ACK) [%]
CCOc1cc(C(=O)N2CCC(NC)C2)ccc1Nc1cc2c(cn1)N(C)C(=O)c1occc1N2C (stereo not shown) [Compound 43]	E (E is ≦35%)	≤ 35	≤ 35	≤ 35	–	–	–	–
CCOc1cc(C(=O)N2CCC(N3CCN(C)CC3)CC2)ccc1Nc1cc2c(cn1)N(C)C(=O)c1ncccc1N2C [Compound 40]	–	–	–	–	E (E is ≦35%)	≤ 35	≤ 35	≤ 35
CCOc1cc(C(=O)N(C)CCN(CC)CC)ccc1Nc1cc2c(cn1)N(C)C(=O)c1ccccc1N2C [Compound 42]	–	–	–	–	E (E is ≦35%)	≤ 35	≤ 35	≤ 35
CCOc1cc(C(=O)N(C)CCn2ccnc2)ccc1Nc1cc2c(cn1)N(C)C(=O)c1ccccc1N2C [Compound 30]	E (E is ≦35%)	≤ 35	≤ 35	≤ 35	–	–	–	–
CCOc1cc(C(=O)N2CC[C@@H](N3CCCC3)C2)ccc1Nc1cc2c(cn1)N(C)C(=O)c1ccccc1N2C [Compound 24]	E (E is ≦35%)	≤ 35	≤ 35	≤ 35	–	–	–	–
CN1C(=O)c2ccccc2N(C)c2cc(N[C@H]3CC[C@H](NC4=NCCO4)CC3)ncc21 [Compound 45]	–	–	–	–	E (E is ≦35%)	≤ 35	≤ 35	≤ 35
CCOc1cc(C(=O)N2CC[C@H](O)C2)ccc1Nc1cc2c(cn1)N(C)C(=O)c1occc1N2C [Compound 17]	E (E is ≦35%)	≤ 35	≤ 35	≤ 35	–	–	–	–
CCOc1cc(C(=O)N2CCC(N3CCCC3)C2)ccc1Nc1cc2c(cn1)N(C)C(=O)c1occc1N2C (stereo not shown) [Compound 15]	E (E is ≦35%)	≤ 35	≤ 35	≤ 35	–	–	–	–
CCOc1cc(C(=O)N2CC[C@@H](N(C)C)C2)ccc1Nc1cc2c(cn1)N(C)C(=O)c1occc1N2C [Compound 25]	E (E is ≦35%)	≤ 35	≤ 35	≤ 35	–	–	–	–

The next lines start with the values.

Kinase inhibition % at indicated screening concentration: AurB or AurC (AurB or AurC; screening concentration 0.1 μM)	inhibition at 0.1 µM (JAK1) [%]	inhibition at 0.1 µM (TAO2) [%]	inhibition at 0.1 µM (ACK) [%]	Kinase inhibition % at indicated screening concentration: AurB or AurC (AurB or AurC; screening concentration 1.0 μM)	inhibition at 1 µM (JAK1) [%]	inhibition at 1 µM (TAO2) [%]	inhibition at 1 µM (ACK) [%]	Compound
E (E is ≦35%)	≤ 35	≤ 35	≤ 35	–	–	–	–	CCOc1cc(C(=O)N2CCN(CCO)CC2)ccc1Nc1cc2c(cn1)N(C)C(=O)c1ccccc1N2C [Compound 37]
E (E is ≦35%)	≤ 35	≤ 35	≤ 35	–	–	–	–	CCOc1cc(C(=O)N2CCN(C3CC3)CC2)ccc1Nc1cc2c(cn1)N(C)C(=O)c1ccccc1N2C [Compound 39]
–	–	–	–	E (E is ≦35%)	≤ 35	≤ 35	≤ 35	CCOc1cc(C(=O)N2CCCCC2)ccc1Nc1cc2c(cn1)N(C)C(=O)c1ccccc1N2C [Compound 12]
E (E is ≦35%)	≤ 35	≤ 35	≤ 35	–	–	–	–	C=CCN1CCN(C(=O)c2ccc(Nc3cc4c(cn3)N(C)C(=O)c3ccccc3N4C)c(OCC)c2)CC1 [Compound 21]
–	–	–	–	E (E is ≦35%)	≤ 35	≤ 35	≤ 35	CCOc1cc(C(=O)NCCN2CCN(C)CC2)ccc1Nc1cc2c(cn1)N(C)C(=O)c1ccccc1N2C [Compound 44]
E (E is ≦35%)	≤ 35	≤ 35	≤ 35	–	–	–	–	CCOc1cc(C(=O)N2CCNC[C@@H]2C)ccc1Nc1cc2c(cn1)N(C)C(=O)c1ccccc1N2C [Compound 31]
E (E is ≦35%)	≤ 35	≤ 35	≤ 35	–	–	–	–	CCOc1cc(C(=O)N(C)CCN2CCCC2)ccc1Nc1cc2c(cn1)N(C)C(=O)c1ccccc1N2C [Compound 28]
